Data published in patent publication US5958907A, “Pharmaceutical compositions and uses of inorganic pyrophosphates” (The University of Iowa Research Foundation, priority 1997, dated 1999).
pEC50: −log10 of the molar value. Read-outs that look alike come from different tables or passages of the source. One block for each compound: values may come before it.

Tests used:
[1] = test system: CFTR; conditions: cited from earlier work
[2] = test system: purinergic receptors in the airway epithelium; conditions: in vitro; cited from earlier work
[3] = molecular target: T1, wild-type CFTR (Homo sapiens, UniProt P13569); experiment: Single channel excised inside-out patch-clamp and burst analysis, wild-type CFTR; assay type: cell-based; conditions: for frequency of prolonged bursts compared with PPi / bursts of activity: PPi analogs at 5 mM; for bursts of activity: C127 cell patches with a single active channel
T1 construct: excised inside-out patches with ATP and PKA

[4] = cited from earlier work
[5] = molecular target: endogenous CFTR in the apical membrane of T-84 intestinal epithelial monolayers (Homo sapiens, UniProt P13569)
[6] = molecular target: CFTR channel (Homo sapiens, UniProt P13569); conditions: 5 mM PPi
Method: Maximum likelihood analysis and kinetic modeling were performed as described (Winter, M. C. et al. (1994) Biophys. J. 66:1398-1403). Briefly, unfiltered single channel data were digitized on a microcomputer (Apple Macintosh, Apple Computer, Inc., Cupertine, Calif.) equipped with a multifunctional data acquisition board (NB-MIO-16) and LabVIEW 2 software (National Instruments, Austin, Tex.) at 5 kHz following filtering with an 8-pole Bessel filter (Frequency Devices Inc., Haverhill, Mass.) at a comer frequency of 1 kHz with subsequent digital filtering at 500 Hz. Previous work has shown that a linear three state model (C1 .rarw.→C2 .rarw.→O) best describes the kinetics of CFTR channel activity (Winter, M. C. et al. (1994) Biophys. J. 66:1398-1403). The Maple 5 symbolic algebra program (Waterloo Maple Software, Waterloo, Canada) was used to derive the open and closed time probability density functions for this model by solving the matrix equations in terms of the rate constants. The resulting equations were used in LabVIEW 2 to determine the set of rate constants which yielded the maximum likelihood for the open and closed times observed with different experimental interventions.
It has been previously shown that the activity of single phosphorylated CFTR channels can be described by a linear three state model (Winter, M. C. et al. (1994) Biophys. J. 66:1398-1403), and this model has been used to describe how ATP, ADP, and inorganic phosphate alter the rate constants which describe transitions between states (Carson, M. R. et al., 1994 Biophys. J (In Press); Winter, M. C. et al., 1994 Biophys. J. 66:1398-1403). […] The rate constants (β1, β2, α1, and α2) describe the rate of transition between each state.

[7] = molecular target: T2, CFTR Cl^- channel (Homo sapiens, UniProt P13569); conditions: external addition of 5 mM PPi, n=4
Method: To determine if inorganic pyrophosphate (PPi) would alter CFTR Cl^- channel activity, 5 mM PPi was added to an excised, inside-out membrane patch containing many CFTR channels which had been phosphorylated by PKA.

[8] = test system: human CFTR; conditions: [α-32P]8-N3ATP 30 αM, PPi in mM, 60 s UV irradiation; relative to control without PPi
Method: Photolabeling of membrane-associated CFTR was performed as previously described (Travis, S. M. et al. (1993) J. Biol. Chem. 268:15336-15339). […] Membranes were prepared by differential centrifugation and resuspended in 20 mM HEPES, pH 7.5, 50 mM NaCl, 3 mM MgSO4, with 2 μg/ml each of leupeptin, aprotinin, and pepstatin. Membrane-associated CFTR was phosphorylated prior to photolabeling by incubation with 100 nM PKA and 0.1 mM ATP in buffer containing 10 m MgCl2 and 50 mM 1,4-piperazine diethane sulfonic acid, pH 6.8 for 20 min at 30° C., then diluted in 12 volumes buffer containing 20 mM tris(hydroxymethyl)aminomethane, pH 7.5, 0.2 mM EGTA and 1 μM calyculin A. Membranes were collected by centrifugation and resuspended at a concentration of 2.5 mg protein/ml in the same buffer.
Photolabeling was performed by preincubating membranes (50 μg membrane protein/sample) on ice with [α-^32 P]8-N3ATP (30 αM, 6-12 Ci/mmol) and PPi (in mM). After 60 s UV irradiation, CFTR was solubilized and immunoprecipitated as described (Travis, S. M. et al. (1993) J. Biol. Chem. 268:15336-15339) using antibodies raised against the R domain (M13-1, 0.3 μg/sample) and against the C terminus (M1-4, 10 μg/sample). Immunocomplexes were analyzed by SDS-PAGE and incorporation of [α-^32 P]8-N3ATP was quantitated with an AMBIS radioanalytic imaging system (AMBIS Systems, Inc., San Diego, Calif.).

[9] = test system: CFTR; conditions: artificial lipid bilayers; cited from earlier work
[10] = test system: CFTR-ΔF508; conditions: 5 mM PPi, 75 nM PKA, 0.3 mM ATP
[11] = molecular target: T2, CFTR Cl^- channel
[12] = test system: sodium channels; conditions: aerosolized, initial results; cited from earlier work

Sequence of endogenous CFTR in the apical membrane of T-84 intestinal epithelial monolayers (P13569 whole entry): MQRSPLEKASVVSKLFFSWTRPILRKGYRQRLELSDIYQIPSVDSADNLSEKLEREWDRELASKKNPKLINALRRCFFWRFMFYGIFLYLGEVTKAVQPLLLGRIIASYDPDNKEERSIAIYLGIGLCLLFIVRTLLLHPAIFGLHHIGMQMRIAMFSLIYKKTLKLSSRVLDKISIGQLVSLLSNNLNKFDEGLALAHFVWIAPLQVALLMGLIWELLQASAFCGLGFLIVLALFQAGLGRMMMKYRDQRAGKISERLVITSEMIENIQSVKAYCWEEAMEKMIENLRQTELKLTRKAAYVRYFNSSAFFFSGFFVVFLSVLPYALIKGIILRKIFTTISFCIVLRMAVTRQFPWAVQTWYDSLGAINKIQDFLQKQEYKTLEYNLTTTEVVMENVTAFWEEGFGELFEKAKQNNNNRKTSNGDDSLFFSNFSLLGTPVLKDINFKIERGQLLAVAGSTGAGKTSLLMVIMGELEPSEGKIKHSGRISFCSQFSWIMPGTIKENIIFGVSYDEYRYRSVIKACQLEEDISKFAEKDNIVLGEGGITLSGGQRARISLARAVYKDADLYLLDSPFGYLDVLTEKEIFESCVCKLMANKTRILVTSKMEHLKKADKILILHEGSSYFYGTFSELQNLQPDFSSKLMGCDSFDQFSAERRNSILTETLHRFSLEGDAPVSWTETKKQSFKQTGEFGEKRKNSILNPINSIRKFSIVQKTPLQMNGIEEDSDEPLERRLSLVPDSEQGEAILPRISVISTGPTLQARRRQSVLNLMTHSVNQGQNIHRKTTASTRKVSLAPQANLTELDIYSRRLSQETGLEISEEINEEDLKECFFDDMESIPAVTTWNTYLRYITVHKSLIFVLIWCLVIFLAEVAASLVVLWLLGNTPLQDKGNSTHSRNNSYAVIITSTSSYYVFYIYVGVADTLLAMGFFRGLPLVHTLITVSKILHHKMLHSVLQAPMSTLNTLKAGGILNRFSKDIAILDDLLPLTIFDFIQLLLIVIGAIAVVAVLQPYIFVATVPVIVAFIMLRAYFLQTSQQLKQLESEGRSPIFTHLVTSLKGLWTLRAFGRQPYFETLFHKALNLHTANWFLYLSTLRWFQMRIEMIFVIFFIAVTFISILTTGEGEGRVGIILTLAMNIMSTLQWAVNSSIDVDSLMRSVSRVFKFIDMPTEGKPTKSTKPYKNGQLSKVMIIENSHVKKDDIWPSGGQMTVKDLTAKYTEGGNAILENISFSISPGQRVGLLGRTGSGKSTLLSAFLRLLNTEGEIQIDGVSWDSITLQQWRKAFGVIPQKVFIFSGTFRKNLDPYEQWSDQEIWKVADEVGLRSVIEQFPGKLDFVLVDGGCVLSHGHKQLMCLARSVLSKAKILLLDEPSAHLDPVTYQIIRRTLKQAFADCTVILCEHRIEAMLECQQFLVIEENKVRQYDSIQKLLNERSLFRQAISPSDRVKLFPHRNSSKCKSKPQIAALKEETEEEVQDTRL
T1 sequence (P13569 whole entry): as above
T2 sequence (P13569 whole entry): as above
Sequence of CFTR channel (P13569 whole entry): as above

SMILES: Nc1ncnc2c1ncn2[C@@H]1O[C@H](COP(=O)(O)OP(=O)(O)NP(=O)(O)O)[C@@H](O)[C@H]1O [AMP-PNP]
- binding affinity relative to ATP [1]: one twentieth

SMILES: Nc1ncnc2c1ncn2[C@@H]1O[C@H](COP(=O)(O)OP(=O)(O)OP(=O)(O)O)[C@@H](O)[C@H]1O [ATP, Adenosine 5'-triphosphate]
- chloride secretion [2]: can stimulate chloride secretion

- frequency of prolonged bursts compared with PPi ([3]; 75 nM PKA, 0.3 mM ATP): less frequent
- bursts of activity ([3]; 75 nM PKA, 0.3 mM ATP): prolonged bursts of activity
- effects on Po and average burst duration (channel activity) ([3]; nonhydrolyzable PPi analogs): did not achieve statistical significance
SMILES: O=P(O)(O)CP(=O)(O)O [PCP, Methylenediphosphonic acid]
- maintenance of calcaemia after initial treatment ([4]; daily oral administration of 1600 mg): calcaemia can be maintained
- efficacy in tumor-induced bone disease ([4]; one slow infusion of 600 mg): shown efficacy

SMILES: O=P([O-])([O-])OP(=O)([O-])[O-].[Na+].[Na+].[Na+].[Na+] [PPi, Sodium pyrophosphate]
- apical membrane Cl- current ([5]; 1 or 5 mM PPi added to basolateral solution after cAMP, 1 mM ATP): further increase in current
- apical membrane Cl- current ([5]; 1 or 5 mM PPi in the absence of cAMP): did not increase current above baseline levels
- time for current to decrease to baseline levels after removal of cAMP ([5]; in the continued presence of PPi): ≤ 3 min
- decrease of rate constant α2 ([6]; 0.3 mM ATP, 75 nM PKA): 37%
- rate constant β1 (transition from long closed state C1 to bursting state) ([6]; 0.3 mM ATP, 75 nM PKA): increased β1
- rate constant β2 ([6]; 0.3 mM ATP, 75 nM PKA): did not alter β2
- rate constant α1 (rate of leaving the bursting mode) ([6]; 0.3 mM ATP, 75 nM PKA, four single-channel patches): six-fold decrease
- change in Po within a burst ([6]; n=4, not significantly different): < 5%
- whole-cell currents [7]: did not alter currents
- 8-N3 ATP labeling of CFTR [8]: concentration-dependent increase
- duration of bursts [9]: prolonged the duration of bursts
- Po ([10]; before: 0.07±0.01, n=3): 0.21±0.022
- average burst duration ([10]; before: 125±19 ms, n=3): 1023 ± 330 ms
- increase of Po ([10]; n=3): three-fold
- increase of average burst duration ([10]; n=3): eight-fold
- stimulation of ΔF508 activity ([10]; n=5): three-fold
- duration of the long closed states between bursts of activity ([3]; 5 mM PPi, 0.3 mM ATP, 75 nM PKA): appeared to decrease the duration of the long closed states
- open state probability (Po) ([3]; 5 mM PPi, 0.3 mM ATP, 75 nM PKA, before: 0.39±0.021, n=8, p<0.001): 0.81±0.03
- mean burst duration ([3]; 5 mM PPi, 0.3 mM ATP, 75 nM PKA, before: 175±6 ms, n=8, p<0.001): 1568 ± 219 ms
- single channel current amplitude ([3]; after addition of 5 mM PPi, 0.3 mM ATP, 75 nM PKA, before: 0.90±0.05, n=8, p=0.812): 0.91±0.02 pA
- Cl- current ([11]; 5 mM PPi in the presence of 0.3 mM ATP, channels phosphorylated by PKA, cytosolic side): reversible increase
- Cl- current ([11]; PPi in the absence of ATP): did not stimulate current
- pEC50 ([11]; read-out: apparent EC50 of stimulation of Cl- current, in the presence of ATP, PKA-phosphorylated channels): ~3.30

SMILES: O=c1ccn([C@@H]2O[C@H](COP(=O)(O)OP(=O)(O)OP(=O)(O)O)[C@@H](O)[C@H]2O)c(=O)[nH]1 [UTP]
- chloride secretion [2]: can stimulate chloride secretion

SMILES: N=C(N)NC(=O)c1nc(Cl)c(N)nc1N [amiloride]
- rate of disease progression, as measured by lung function tests [12]: slight change in the rate of disease progression
- safety [12]: safe

- frequency of prolonged bursts compared with PPi ([3]; 75 nM PKA, 0.3 mM ATP): less frequent
- bursts of activity ([3]; 75 nM PKA, 0.3 mM ATP): prolonged bursts of activity
SMILES: CC(O)(P(=O)(O)O)P(=O)(O)O [etidronate, 1-hydroxyethylidenebisphosphonic acid, reference compound]
- efficacy in tumor-induced bone disease ([4]; 500 mg/day for 3 days): shown efficacy
